Where two headings read alike, the source gives them in different places.
Legend:
SU-DHL-4 cells = assay: Inhibitory effect on cell viability in SU-DHL-4 cell line (Test Example 1); format: cell-based, human; conditions: 72 hours; for IC50: SU-DHL-4 (wild type) cells, calculated using the measurement results of test example 1, read-out: SU-DHL-4 WT IC50; for IC90: SU-DHL-4 cells, Cell Counting Kit-8, concentration showing 90% inhibition of cell viability, read-out: SU-DHL-4 Cell Viability Inhibition Rate IC90
Procedure, shortened: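 SU-DHL-4 cells were grown at 37° C. under 5% CO2 in RPMI1640 with 10 vol % heat-inactivated FBS plus penicillin/streptomycin, seeded and precultured for 18 to 25 hours, then exposed to test compound at 0.1 vol % DMSO for 72 hours. Viability was read with Cell Counting Kit-8 by absorbance at 450 nm.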

DCAF16 KO SU-DHL-4 cells = assay: Inhibitory effect on cell viability using SU-DHL-4 DCAF16 knock out (KO) cell line (Test Example 6); format: cell-based, human; conditions: for Activity Attenuation Ratio: (SU-DHL-4 DCAF16 KO IC50)/(SU-DHL-4 WT IC50); for IC50: DCAF16 KO SU-DHL-4 cells, 72 hours, Cell Counting Kit-8, 50% inhibition of cell viability
Method: The human DLBCL cell line SU-DHL-4 was purchased from DSMZ. SU-DHL-4 was passaged using RPMI1640 medium containing 10 vol % FBS. After the Cas9 gene was introduced, the cells were cultured in the above medium containing 0.01 mg/mL blasticidin (InvivoGen, Cat No. ant-bl-1). After introduction of sgRNA, the cells were cultured in the above medium containing 0.0001 mg/mL puromycin dihydrochloride (SIGMA, Cat No. P9020-10 ML). The culture conditions were 37° C. and 5% CO2.
Edit-R Lentiviral hEF1α-Blast-Cas9 Nuclease Particles (Cat No. VCAS10126) was used as a lentivirus for expressing Cas9 in human cell lines. Three types of Edit-R Human DCAF16 Lentiviral sgRNA (Cat No. VSGH10142-246568260; DNA target sequence […] (SEQ ID NO: 1), Cat No. VSGH10142-246568262; DNA target sequence […] (SEQ ID NO: 2) and Cat No. VSGH10142-246568263; DNA target sequence […] (SEQ ID NO: 3)) were used as lentiviruses for introducing DCAF16 sgRNA. As a control, Edit-R Lentiviral sgRNA Non-targeting Control #1 (Cat No. VSGC10215) was used. All lentiviruses were purchased from Dharmacon and stored at −80° C. until use.
SU-DHL-4 was suspended at 4×10^5 cells/mL in RPMI 1640 without FBS, 0.25 mL of the suspension was added to a 24-well plate, and the cells were cultured overnight. The next day, 0.003 mL of virus particles of Edit-R Lentiviral hEF1α-Blast-Cas9 Nuclease Particles was added. After culturing in a CO2 incubator for 4 hours, RPMI 1640 containing 0.75 mL of 10 vol % FBS was added. After culturing in a CO2 incubator for about 48 hours, the medium was replaced with RPMI1640 containing 10 vol % FBS, and the cells were cultured in a CO2 incubator. Four days after infection, the medium was replaced with a medium containing 0.01 mg/mL blasticidin (InvivoGen, Cat No. ant-bl-1). Then, the cells were passaged once every 2 to 3 days and thus twice in total (that is, cultured for 1 week) to obtain SU-DHL-4/Cas9, which is a Cas9-introduced SU-DHL-4 cell line.
(6) sgRNA infection SU-DHL-4/Cas9 was suspended at 4×10^5 cells/mL in RPMI 1640 without FBS, 0.25 mL of the suspension was added to a 24-well plate, and the cells were cultured overnight. The next day, a total of 4 types of sgRNA virus particles, 1 type of Control and 3 types targeting DCAF16 were added to the respective wells by 0.03 mL. After culturing in a CO2 incubator for 5 hours, RPMI 1640 containing 0.75 mL of 10 vol % FBS was added.
After culturing in a CO2 incubator for about 48 hours, the medium was replaced with RPMI1640 containing 10 vol % FBS, and the cells were cultured in a CO2 incubator. Four days after infection, the medium was replaced with a medium supplemented with 0.01 mg/mL puromycin dihydrochloride (SIGMA, Cat No. P9020-10 ML). Then, the cells were passaged once or twice a week for 2 weeks, and a cell stock was prepared using CELLBANKER I plus (Takara Bio, Cat No. CB-021). Cell line stock was stored at −80° C. Using Edit-R Lentiviral sgRNA Non-targeting Control #1, the Negative Control sequence was introduced into the SU-DHL-4 cell line, which was referred to as SU-DHL-4 NC strain, and using Edit-R Human DCAF16 Lentiviral sgRNA, […] sequence (SEQ ID NO: 1) was introduced into the SU-DHL-4 cell line, which was referred to as SU-DHL-4 DCAF16 KO1 strain, […] sequence (SEQ ID NO: 2) was introduced into the SU-DHL-4 cell line, which was referred to as SU-DHL-4 DCAF16 KO2 strain, and […] sequence (SEQ ID NO: 3) was introduced into the SU-DHL-4 cell line, which was referred to as SU-DHL-4 DCAF16 KO 3 strain.
The cultured DCAF16 KO SU-DHL-4 cells were seeded at 2000 cells/well in a transparent 384-well plate (Code No. 781182, Greiner bio-one). After seeding, the cells were pre-cultured at 37° C. in a carbon dioxide gas incubator for 18 to 25 hours. […]

Row | SMILES | IC50 (SU-DHL-4 cells; Homo sapiens) | IC50 (DCAF16 KO SU-DHL-4 cells; Homo sapiens) | IC50 (SU-DHL-4 cells) | IC90 (SU-DHL-4 cells) | IC50 (DCAF16 KO SU-DHL-4 cells) | Activity Attenuation Ratio (DCAF16 KO SU-DHL-4 cells)
1 | CCC(=O)N1c2ccccc2[C@H](Nc2ccc(C(=O)NCCCNC(=O)c3ccc(N[C@@H]4C[C@H](C)N(C(=O)CC)c5ccccc54)cc3)cc2)C[C@@H]1C (relative stereo) [Compound 1a, N,N′-(Propane-1,3-diyl)bis(4-{[(2S*,4R*)-2-methyl-1-propionyl-1,2,3,4-tetrahydroquinolin-4-yl]amino}benzamide)] | 1.13 nM | 68.7 nM | – | – | – | 61
2 | CCC(=O)N1c2ccccc2[C@H](Nc2ccc(NC(=O)CCSc3ccc(N[C@@H]4C[C@H](C)N(C(=O)CC)c5ccccc54)cc3)cc2)C[C@@H]1C (relative stereo) [Compound 4e, N-(4-{[(2S*,4R*)-2-Methyl-1-propionyl-1,2,3,4-tetrahydroquinolin-4-yl]amino}phenyl)-3-[(4-{[(2S,4R)-2-methyl-1-propionyl-1,2,3,4-tetrahydroquinolin-4-yl]amino}phenyl)thio]propanamide] | 0.3 nM | 75 nM | – | – | – | 250
3 | CCC(=O)N1c2ccccc2[C@H](Nc2ccc(NC(=O)C#CCNC(=O)C3CCC(N[C@@H]4C[C@H](C)N(C(=O)CC)c5ccccc54)CC3)cc2)C[C@@H]1C (relative stereo) [Compound 8g, (1R,4r)-4-(((2S*,4R*)-2-Methyl-1-propionyl-1,2,3,4-tetrahydroquinolin-4-yl)amino)-N-(4-((4-(((2S,4R)-2-methyl-1-propionyl-1,2,3,4-tetrahydroquinolin-4-yl)amino)phenyl)amino)-4-oxobut-2-yn-1-yl)cyclohexane-1-carboxamide] | – | – | 0.008 nM | 0.01 nM | 26 nM | 3174
4 | CCC(=O)N1c2ccccc2[C@H](Nc2ccc(C(=O)NCCCNC(=O)c3ccc(C4=N[C@@H](CC(=O)OC(C)(C)C)c5nnc(C)n5-c5sc(C)c(C)c54)cc3)cc2)C[C@@H]1C [Compound 1h, tert-Butyl 2-[(S)-2,3,9-trimethyl-4-(4-{[3-(4-{[(2S,4R)-2-methyl-1-propionyl-1,2,3,4-tetrahydroquinolin-4-yl]amino}benzamide)propyl]carbamoyl}phenyl)-6H-thieno[3,2-f][1,2,4]triazolo[4,3-a][1,4]diazepin-6-yl]acetate] | – | – | – | 0.27 nM | – | –
5 | Cc1sc2c(c1C)C(c1ccc(C(=O)NCc3cn(-c4ccc(C5=N[C@@H](CC(=O)OC(C)(C)C)c6nnc(C)n6-c6sc(C)c(C)c65)cc4)nn3)cc1)=N[C@@H](CC(=O)OC(C)(C)C)c1nnc(C)n1-2 [Compound 3b, tert-Butyl 2-[(S)-4-(4-{4-[(4-{(S)-6-[2-(tert-butoxy)-2-oxoethyl]-2,3,9-trimethyl-6H-thieno[3,2-f][1,2,4]triazolo[4,3-a][1,4]diazepin-4-yl}benzamide)methyl]-1H-1,2,3-triazol-1-yl}phenyl)-2,3,9-trimethyl-6H-thieno[3,2-f][1,2,4]triazolo[4,3-a][1,4]diazepin-6-yl]acetate] | – | – | – | 0.18 nM | – | –
6 | CCC(=O)N1c2ccccc2[C@H](Nc2ccc(NC(=O)CCCC(=O)Nc3ccc(N[C@@H]4C[C@H](C)N(C(=O)CC)c5ccccc54)cc3)cc2)C[C@@H]1C [Compound 6k, N^1,N^5-Bis(4-(((2S,4R)-2-methyl-1-propionyl-1,2,3,4-tetrahydroquinolin-4-yl)amino)phenyl)glutaramide] | – | 31.2 nM | – | – | – | 520
7 | CCC(=O)N1c2ccccc2[C@H](Nc2ccc(-n3cc(CCNC(=O)[C@H]4CC[C@H](N[C@@H]5C[C@H](C)N(C(=O)CC)c6ccccc65)CC4)nn3)cc2)C[C@@H]1C [Compound 8a, (1R,4r)-4-(((2S,4R)-2-Methyl-1-propionyl-1,2,3,4-tetrahydroquinolin-4-yl)amino)-N-(2-(1-(4-(((2S,4R)-2-methyl-1-propionyl-1,2,3,4-tetrahydroquinolin-4-yl)amino)phenyl)-1H-1,2,3-triazol-4-yl)ethyl)cyclohexane-1-carboxamide] | – | – | – | 0.87 nM | – | –

Second part, led by results:

Row | IC50 (SU-DHL-4 cells; Homo sapiens) | IC50 (DCAF16 KO SU-DHL-4 cells; Homo sapiens) | IC50 (SU-DHL-4 cells) | IC90 (SU-DHL-4 cells) | IC50 (DCAF16 KO SU-DHL-4 cells) | SMILES | Activity Attenuation Ratio (DCAF16 KO SU-DHL-4 cells)
8 | 2.93 nM | 385 nM | – | – | – | CCC(=O)N1c2ccccc2[C@H](Nc2ccc(C(=O)NC3CCN(C(=O)c4ccc(N[C@@H]5C[C@H](C)N(C(=O)CC)c6ccccc65)cc4)CC3)cc2)C[C@@H]1C (relative stereo) [Compound 1c, 4-{[(2S*,4R*)-2-Methyl-1-propionyl-1,2,3,4-tetrahydroquinolin-4-yl]amino}-N-[1-(4-{[(2S*,4R*)-2-methyl-1-propionyl-1,2,3,4-tetrahydroquinolin-4-yl]amino}benzoyl)piperidin-4-yl]benzamide] | 131
9 | 0.09 nM | 100 nM | – | – | – | CCC(=O)N1c2ccccc2[C@H](Nc2ccc(NC(=O)CCNC(=O)c3ccc(N[C@@H]4C[C@H](C)N(C(=O)CC)c5ccccc54)cc3)cc2)C[C@@H]1C (relative stereo) [Compound 2f, 4-{[(2S,4R)-2-Methyl-1-propionyl-1,2,3,4-tetrahydroquinolin-4-yl]amino}-N-{3-[(4-{[(2S*,4R*)-2-methyl-1-propionyl-1,2,3,4-tetrahydroquinolin-4-yl]amino}phenyl)amino]-3-oxopropyl}benzamide] | 1111
10 | 0.03 nM | 12.2 nM | – | – | – | CCC(=O)N1c2ccccc2[C@H](Nc2ccc(NC(=O)C3CN(C(=O)c4ccc(N[C@@H]5C[C@H](C)N(C(=O)CC)c6ccccc65)cc4)C3)cc2)C[C@@H]1C (relative stereo) [Compound 2h, 1-(4-{[(2S,4R)-2-Methyl-1-propionyl-1,2,3,4-tetrahydroquinolin-4-yl]amino}benzoyl)-N-(4-{[(2S*,4R*)-2-methyl-1-propionyl-1,2,3,4-tetrahydroquinolin-4-yl]amino}phenyl)azetidine-3-carboxamide] | 408
11 | 0.08 nM | 90.3 nM | – | – | – | CCC(=O)N1c2ccccc2[C@H](Nc2ccc(NC(=O)N3CCN(C(=O)c4ccc(N[C@@H]5C[C@H](C)N(C(=O)CC)c6ccccc65)cc4)CC3)cc2)C[C@@H]1C (relative stereo) [Compound 6m, 4-(4-(((2S,4R)-2-Methyl-1-propionyl-1,2,3,4-tetrahydroquinolin-4-yl)amino)benzoyl)-N-(4-(((2S*,4R*)-2-methyl-1-propionyl-1,2,3,4-tetrahydroquinolin-4-yl)amino)phenyl)piperazine-1-carboxamide] | 1164
